The test system of this experiment is GAS. Put plainly: time-dependent killing (bactericidal) assay. It is filed as cell-based, Streptococcus pyogenes. The conditions noted are these: 10× MIC; exponential phase GAS. Here is the method:
GAS grown to exponential phase was diluted to 10^5 CFUs ml^−1. […] A 100-µl aliquot was collected at each timepoint, cells were centrifuged and pellets were resuspended in 100 µl phosphate-buffered saline (PBS). Cells were serially diluted and plated on blood agar plates. After overnight incubation at 37 °C, CFUs were enumerated and reported as CFUs ml^−1. […] Bactericidal assays were performed in biological triplicate.

Consider `CC1(C)S[C@@H]2[C@H](NC(=O)Cc3ccccc3)C(=O)N2[C@H]1C(=O)O` [penicillin G], for which the “killing of GAS, in words” value is “complete killing”.

The values above are taken from PMC10847043, “Engineered probiotic overcomes pathogen defences using signal interference and antibiotic production to treat infection in mice” (Nature Microbiology, 2024).
